# Results: patent US5609749A, “Electrochemical assay method with novel p-phenylenediamine compound” (Mochida Pharmaceutical Co., Ltd., priority 1993, dated 1997)
# Columns and labels:
# hCG = test: Measurement of hCG in whole blood with specific binding assay device (MEDIA method), freeze-dried electron mediator member; design: species or system human; conditions: hCG 0 vs 1,000 IU/l whole blood, -150 mV
# Description: The specific binding assay device shown in FIGS. 2 and 3 was constructed, and concentration of hCG in samples was measured using the device. The HRPO-HM81 obtained in the above step (1) was diluted with a phosphate buffer (pH 6.0) containing 5% normal rabbit serum (NRS), 10% saccharose and 0.1M NaCl to prepare a solution having a peroxidase activity of 0.63 U/ml. Next, 140 μl of the solution was spotted on a circular filter paper piece of 12 mm in diameter punched out from glass fiber filter paper (GA100, manufactured by Advantech Toyo) and then freeze-dried to obtain an HRPO-HM81 freeze-dry member to be used as the labeled antibody-impregnatedmember 14. The THEPD obtained in Synthesis Example 3 was dissolved in a phosphate buffer (pH 6.0) containing 0.1M NaCl to prepare a 5.0 mM solution. Next, 140 μl of the solution was spotted on a circular filter paper piece of 12 mm in diameter punched out from glass fiber filter paper (GA100, manufactured by Advantech Toyo) and then freeze-dried to obtain a THEPD freeze-dry member to be used as the electron mediator-impregnated member 16 of the present invention. The TEPD obtained in Synthesis Example 1 was dissolved in a phosphate buffer (pH 6.0) containing 1M NaCl to prepare a 5.0 mM solution. […]
# [1] = Current response of electron mediators in buffer solution and in the presence of blood, urine
# Excerpt: Of these oxidation-reduction enzymes, glucose oxidase (GOD) is used in enzyme electrodes for the measurement of blood glucose level and horseradish peroxidase (HRPO) is used as a label enzyme in specific binding assays such as DNA hybridization, immunoassay and the like. […] However, these electron mediators were not able to show stable and reproducible response in the presence of blood, urine and the like because of the interfering substances contained therein.
# [2] = Dry chemistry type chips: filter paper impregnated with mediator solution and dried on an electrode; conditions: mediator dried on cellulose or glass filter paper, dissolved by liquid sample
# Excerpt: In addition, the present inventors have attempted to prepare a dry chemistry type chips by impregnating a piece of cellulose filter paper or glass filter paper with a solution of HQ, PPD, TMPD or TEPD and drying the resulting piece on an electrode (by freeze-drying, vacuum drying, air-drying or the like) or arranging it on an electrode after drying so that the impregnated electron mediator can dissolve in a liquid sample at the time of measurement.
Compound,electric current response to hCG concentration (hCG),current response ([1]; in a buffer solution),"response in the presence of blood, urine and the like ([1]; interfering substances in blood, urine)",current response and characteristics of dry chemistry type chips [2]
"CCN(CC)c1ccc(N(CC)CC)cc1.Cl.Cl [TEPD, N,N,N',N'-tetraethyl-p-phenylenediamine dihydrochloride, reference compound]",the electric current did not increase in response to the concentration of hCG,excellent current response,interference,low current response and extremely poor characteristics
"Cl.Cl.OCCN(CCO)c1ccc(N(CCO)CCO)cc1 [THEPD, N,N,N',N'-tetrakis-(2'-hydroxyethyl)-p-phenylenediamine dihydrochloride]",the reduction current became high in response to the concentration of hCG,–,–,–
